From EPA's ToxValDB 9.5

System: Rattus norvegicus
Details: oral, gavage
[1] = developmental, duration: 14 days, M/F, Crl:CD(SD), generation: F1, F1: Developmental: Bone: Skeletal Malformation + F1: Developmental: Whole Body: Nursing Behavior + F1: Developmental: Whole Body: Pup Weight…
[2] = developmental, duration: 14 days, M/F, Crl:CD(SD), generation: F1, F1: Pelvis: Pelvis, Ischium Incompletely Ossified + F1: Pelvis: Pelvis, Pubis Incompletely Ossified + F1: Skull: Interparietal, Incomplete …
[3] = developmental, duration: 14 days, M/F, Crl:CD(SD), generation: F1, F1: Skull: Supraoccipital, Incomplete Ossification
[4] = developmental, duration: 14 days, M/F, Sprague-Dawley, generation: F1, F1: Developmental: Pelvic Girdle: Ischium, Incomplete Ossification + F1: Developmental: Pelvic Girdle: Pubis, Incomplete Ossification + F1: …
[5] = developmental, duration: 14 days, M/F, Sprague-Dawley, generation: F1, F1: Developmental: Pelvis: Pelvis, Ischium Incompletely Ossified + F1: Developmental: Pelvis: Pelvis, Pubis Incompletely Ossified + F1: …
[6] = developmental, duration: 14 days, M/F, Sprague-Dawley, generation: F1, F1: Pelvic Girdle: Ischium, Incomplete Ossification + F1: Pelvic Girdle: Pubis, Incomplete Ossification + F1: Rib: Rib, Thick + F1: Rib: Rib…
[7] = developmental, M/F, Sprague-Dawley, generation: F1, F1: Developmental: Whole Body: Lactation Index + F1: Developmental: Whole Body: Live Pups Born + F1: Developmental: Whole Body: No. of Pups …
[8] = reproduction developmental, duration: 14 days, F, Crl:CD(SD), generation: P0, P0: Developmental: Uterus: Implantation + P0: General Toxicity: Whole Body: Necropsy Appeared Normal + P0: Reproductive: Ovary: Corpora …
[9] = reproduction developmental, duration: 14 days, F, Crl:CD(SD), generation: P0, P0: Developmental: Uterus: Implantation + P0: Reproductive: Whole Body: Length of Gestation
[10] = reproduction developmental, duration: 14 days, F, Crl:CD(SD), generation: P0, P0: Whole Body: Clinical Observations + P0: Whole Body: Maternal Body Weight + P0: Whole Body: Maternal Body Weight Change + P0: Whole Body…
[11] = reproduction developmental, duration: 14 days, F, Crl:CD(SD), generation: P0, P0: Whole Body: Maternal Body Weight Change, Corrected
[12] = reproduction developmental, duration: 14 days, F, Sprague-Dawley, generation: P0, P0: Developmental: Uterus: Implantation + P0: Developmental: Uterus: Resorptions, Early + P0: Developmental: Uterus: Resorptions, Late + P0…
[13] = reproduction developmental, duration: 14 days, F, Sprague-Dawley, generation: P0, P0: Whole Body: Maternal Body Weight + P0: Whole Body: Maternal Body Weight Change + P0: Whole Body: Maternal Body Weight, Corrected
[14] = reproduction developmental, duration: 14 days, M/F, Crl:CD(SD), generation: F1, F1: Whole Body: Pup Weight + F1: Whole Body: Viability Index
[15] = reproduction developmental, duration: 70 days, F, Crl:CD(SD), generation: P0, P0: Uterus: Uterus (With Cervix) Weight, Absolute + P0: Whole Body: Clinical Observations + P0: Whole Body: Maternal Food Consumption, …
[16] = reproduction developmental, duration: 70 days, F, Crl:CD(SD), generation: P0, P0: Uterus: Uterus (With Cervix) Weight, Relative + P0: Whole Body: Maternal Body Weight Change + P0: Whole Body: Mortality + P0: Whole Body…
[17] = reproduction developmental, duration: 70 days, M/F, Crl:CD(SD), generation: F1, F1: Whole Body: Clinical Observations + F1: Whole Body: Lactation Index + F1: Whole Body: Pup Mortality + F1: Whole Body: Pup Weight …
[18] = reproduction developmental, duration: 70 days, M/F, Crl:CD(SD), generation: F1, F1: Whole Body: Pup Mortality + F1: Whole Body: Pup Weight Relative to Litter
[19] = reproduction developmental, duration: 70 days, M, Crl:CD(SD), generation: P0, P0: Whole Body: Clinical Observations + P0: Whole Body: Mortality
[20] = reproduction developmental, duration: 70 days, M, Crl:CD(SD), generation: P0, P0: Whole Body: Terminal Body Weight, Absolute
[21] = reproduction developmental, duration: 84 days, M, Crl:CD(SD), generation: P0, P0: Seminal Vesicle: Seminal Vesicle Weight, Absolute + P0: Seminal Vesicle: Seminal Vesicle Weight, Relative + P0: Whole Body: Clinical …
[22] = reproduction developmental, duration: 84 days, M, Crl:CD(SD), generation: P0, P0: Whole Body: Body Weight Change + P0: Whole Body: Terminal Body Weight, Absolute
[23] = reproduction developmental, duration: 131 days, F, Crl:CD(SD), generation: P0, P0: Uterus: Uterus Weight, Absolute + P0: Uterus: Uterus Weight, Relative + P0: Whole Body: Clinical Observations
[24] = reproduction developmental, duration: 131 days, F, Crl:CD(SD), generation: P0, P0: Whole Body: Body Weight Change + P0: Whole Body: Body Weight, Absolute + P0: Whole Body: Mortality
[25] = reproduction developmental, duration: 131 days, M/F, Crl:CD(SD), generation: F1, F1: Kidney: Kidney Abnormalities + F1: Whole Body: Clinical Observations + F1: Whole Body: Dams with Liveborn Pups + F1: Whole Body: …
[26] = reproduction developmental, duration: 131 days, M/F, Crl:CD(SD), generation: F1, F1: Whole Body: Pup Weight Relative to Litter
[27] = reproduction developmental, F, Sprague-Dawley, generation: P0, P0: Developmental: Uterus: Implantation + P0: Developmental: Whole Body: No. Male Pups per No. of Pups Sexed + P0: Endocrine: Pituitary: …
[28] = reproduction developmental, F, Sprague-Dawley, generation: P0, P0: Developmental: Uterus: Implantation + P0: Developmental: Whole Body: No. Male Pups per No. of Pups Sexed + P0: General Toxicity: Whole …

LEL [2]: 250 mg/kg-day | NEL [2]: 125 mg/kg-day | NEL (developmental, duration: 14 days, M/F, Crl:CD(SD), generation: F1, F1: Skull: Frontal, Incomplete Ossification + F1: Skull: Zygomatic Arch, Incomplete Ossification + F1: Uterus: Fetuses, Dead + F1: Uterus: …): 250 mg/kg-day | LEL [3]: 125 mg/kg-day | NEL [3]: 25 mg/kg-day | LEL [6]: 250 mg/kg-day | NEL [6]: 125 mg/kg-day | NEL (reproduction developmental, duration: 14 days, F, Crl:CD(SD), generation: P0, P0: Ovary: Corpora Lutea + P0: Uterus: Implantation + P0: Uterus: Resorptions, Early + P0: Uterus: Resorptions, Late + P0: Uterus: …): 250 mg/kg-day | NEL (reproduction developmental, duration: 14 days, F, Sprague-Dawley, generation: P0, P0: Macroscopic Observations + P0: Ovary: Corpora Lutea + P0: Uterus: Implantation + P0: Uterus: Resorptions, Early + P0: Uterus: …): 250 mg/kg-day | NEL (reproduction developmental, duration: 14 days, M/F, Crl:CD(SD), generation: F1, F1: Whole Body: Nursing Behavior + F1: Whole Body: Skeletal Malformation): 225 mg/kg-day | NEL (reproduction developmental, duration: 70 days, F, Crl:CD(SD), generation: P0, P0: Lung: Lung Histopathology + P0: Mammary Gland: Mammary Gland Histopathology + P0: Ovaries: Ovary Histopathology + P0: Ovary: Ovary …): 250 mg/kg-day | LEL [15]: 125 mg/kg-day | NEL [15]: 25 mg/kg-day | NEL (reproduction developmental, duration: 70 days, M, Crl:CD(SD), generation: P0, P0: Epididymides: Epididymides Histopathology + P0: Epididymis: Epididymis Weight, Left, Absolute + P0: Epididymis: Epididymis Weight, Left…): 250 mg/kg-day | NEL (reproduction developmental, duration: 84 days, M, Crl:CD(SD), generation: P0, P0: Epididymis: Epididymis Histopathology + P0: Epididymis: Epididymis Weight, Absolute + P0: Epididymis: Epididymis Weight, Relative + P0: …): 250 mg/kg-day | LEL [21]: 125 mg/kg-day | NEL [21]: 25 mg/kg-day | NEL (reproduction developmental, duration: 131 days, F, Crl:CD(SD), generation: P0, P0: Bladder: Urinary Bladder Histopathology + P0: Kidney: Kidney Histopathology + P0: Lung: Lung Histopathology + P0: Ovary: Ovary …): 250 mg/kg-day | LEL [23]: 125 mg/kg-day | NEL [23]: 25 mg/kg-day | LEL [25]: 250 mg/kg-day | NEL [25]: 125 mg/kg-day | LEL [26]: 125 mg/kg-day | NEL [26]: 25 mg/kg-day
Structure (SMILES): OCCC(F)(F)C(F)(F)C(F)(F)C(F)(F)C(F)(F)C(F)(F)F [2-(Perfluorohexyl)ethanol]
LOAEL [1]: 225 mg/kg-day | NOAEL [1]: 75 mg/kg-day | LOAEL [4]: 125 mg/kg-day | NOAEL [4]: 25 mg/kg-day | LOAEL [5]: 125 mg/kg-day | NOAEL [5]: 25 mg/kg-day | LOAEL [7]: 125 mg/kg-day | NOAEL [7]: 25 mg/kg-day | LOAEL [8]: 225 mg/kg-day | NOAEL [8]: 75 mg/kg-day | LOAEL [9]: 225 mg/kg-day | NOAEL [9]: 75 mg/kg-day | NEL (reproduction developmental, duration: 14 days, F, Crl:CD(SD), generation: P0, P0: Ovary: Corpora Lutea + P0: Uterus: Implantation + P0: Whole Body: Length of Gestation + P0: Whole Body: Necropsy Appeared Normal + P0: …): 225 mg/kg-day | NOAEL (reproduction developmental, duration: 14 days, F, Crl:CD(SD), generation: P0, P0: Reproductive: Ovary: Corpora Lutea + P0: Reproductive: Whole Body: Reproductive Performance): 225 mg/kg-day | LEL [10]: 250 mg/kg-day | NEL [10]: 125 mg/kg-day | LEL [11]: 125 mg/kg-day | NEL [11]: 25 mg/kg-day | LOAEL [12]: 125 mg/kg-day | NOAEL [12]: 25 mg/kg-day | NOAEL (reproduction developmental, duration: 14 days, F, Sprague-Dawley, generation: P0, P0: Reproductive: Ovary: Corpora Lutea + P0: Reproductive: Uterus: Uterine Weight, Gravid): 250 mg/kg-day | LEL [13]: 250 mg/kg-day | NEL [13]: 125 mg/kg-day | LEL [14]: 225 mg/kg-day | NEL [14]: 75 mg/kg-day | NEL (reproduction developmental, duration: 34 days, M, Crl:CD(SD), generation: P0, P0: Central Nervous System: Latency to mount + P0: Whole Body: Necropsy Appeared Normal): 225 mg/kg-day | LEL [16]: 250 mg/kg-day | NEL [16]: 125 mg/kg-day | LEL [17]: 250 mg/kg-day | NEL [17]: 125 mg/kg-day | NEL (reproduction developmental, duration: 70 days, M/F, Crl:CD(SD), generation: F1, F1: Whole Body: Live Pups Born + F1: Whole Body: Mean Pups Delivered + F1: Whole Body: Pup Mortality): 250 mg/kg-day | LEL [18]: 125 mg/kg-day | NEL [18]: 25 mg/kg-day | LEL [19]: 125 mg/kg-day | NEL [19]: 25 mg/kg-day | LEL [20]: 250 mg/kg-day | NEL [20]: 125 mg/kg-day | LEL [22]: 250 mg/kg-day | NEL [22]: 125 mg/kg-day | LEL [24]: 250 mg/kg-day | NEL [24]: 125 mg/kg-day | NEL (reproduction developmental, duration: 131 days, M/F, Crl:CD(SD), generation: F1, F1: Whole Body: Dams with Stillborn Pups + F1: Whole Body: Live Pups Born + F1: Whole Body: Surviving Pups Per Litter): 250 mg/kg-day | LOAEL [27]: 125 mg/kg-day | NOAEL [27]: 25 mg/kg-day | LOAEL [28]: 125 mg/kg-day | NOAEL [28]: 25 mg/kg-day | NOAEL (reproduction developmental, F, Sprague-Dawley, generation: P0, P0: Endocrine: Pituitary: Pituitary Gland Histopathology + P0: Endocrine: Pituitary: Pituitary Gland Weight, Absolute + P0: Endocrine: …): 250 mg/kg-day | LOAEL (reproduction developmental, M/F, Crl:CD(SD), generation: P0, P0: Reproductive: Whole Body: Gestation Index): 125 mg/kg-day
